Legend:
[1] = Chemical hydrolysis in aqueous phosphate buffer (PBS, pH 7.3); type: physicochemical; details: aqueous 25 mM phosphate buffer, pH 7.3, 37 °C; removal of AB group; n.h. = no hydrolysis observed through cleavage of AB-mask
Protocol: γ‐(AB,alkyl)‐NTP prodrugs 6 and γ‐alkyl‐NTPs 7 were incubated in aqueous phosphate buffer (PBS, 25 mM, pH 7.3), or were exposed to pig liver esterase (PLE) in phosphate buffer (PBS) and to human CD4^+ T‐lymphocyte cell extracts to study their stability and the product distribution. The hydrolysis mixtures were analyzed by means of analytical rp‐18‐HPLC. The calculated half‐lives of prodrugs 6 (Table 1, t 1/2) reflect the removal of the bioreversible AB group to yield γ‐alkyl‐NTPs 7. Possible hydrolysis pathways and products are summarized in Scheme 4.
As hydrolysis products, a predominant formation of γ‐alkyl‐d4TTPs 7 and a very small amount of d4TDP […] was detected (approximately 3 %). After consumption of the starting material, no further increase of d4TDP concentration was observed. This supports the hypothesis that only the double‐γ‐esterified d4TTP prodrugs 6 were prone to a bond breakage between the γ‐ and β‐phosphate. […] In contrast to previous studies with TriPPPro‐NTPs 5 containing a second cleavable mask (first generation NTP prodrugs),[ ^23 , ^24 , ^25 ] no d4TTP was detected in these studies using 6 or 7. A side reaction occurred during the studies using compounds 7 that led to the formation of thymine by the cleavage of the glycosidic bond as reported before.[ ^19 , ^22 ]
(§1) ProLab 300 from Schott Co.. Thermomixer: Eppendorf Thermomixer 5436 and CellMedia Thermoschüttler basic were used. […]
Chemical hydrolysis of prodrugs of γ-(AB,alkyl) d4TTP 6 as well as the γ-alkyl-NTPs 7,15:
Stock solutions (50mM in DMSO-d6) of compounds 6,7 were prepared. After dilution of 11 µL stock solution with 100 µL milliQ water and 189 µL DMSO-d6 to 1.9mM hydrolysis solutions the reaction was started by addition of 300 µL phosphate buffer saline (PBS, 50mM, pH 7.3). The solution was incubated at 37 C in a thermomixer. An initial aliquot (25 µL) was taken directly and analyzed by analytical HPLC at 265-266 nm. Further aliquots were taken for monitoring the kinetic hydrolysis. The exponential decay curves (pseudo-first order) based on absolute integral values were calculated with commercially available software (OriginPro 9.0G) and yielded the half-lives t1/2 of the prodrugs via one determination. […]
The calculation of t1/2 was performed analogously to that for the chemical hydrolysis studies.
(§2) Preparation of cell extracts: Human CD4+ T-lymphocyte CEM cells were grown in RPMI-1640-based cell culture medium to a final density of ~3·10^6 cells/ml. Then, cells were centrifuged for 10 min at 1,250 rpm at 4 °C, washed twice with cold PBS, and the pellet was re-suspended at 10^8 cells/ml and sonicated (Hielscher Ultrasound Techn., 100% amplitude, 3·times for 10 sec) to destroy cell integrity. The resulting cell suspension was then centrifuged at 10,000 rpm to remove cell debris, and the supernatant divided in aliquots before being frozen at -80 C and used.
(1 picture or pasted object on this page, not shown here)

[2] = Enzyme-catalyzed hydrolysis in human CD4+ T-lymphocyte CEM cell extracts; type: in vitro ADME; details: CEM/0 cell extracts (CD4+ T-lymphocytes); human CD4+ T-lymphocyte CEM cell extracts, 37 °C; read-out: CEM/0 cell extracts t 1/2 (converted)
Protocol: The stability of prodrugs 6 and the γ‐alkyl‐NTPs 7 was further investigated in human CD4 ^+ T‐lymphocyte CEM cell extracts. […] Thus, an enzymatic cleavage reaction took place. Half‐lives as low as 0.4 h (6 az) to 5.2 h (6 dz) were determined. […] This is in accordance to our previous results for the DiPPro‐[ ^17 , ^18 ] or the TriPPPro‐compounds 5.[ ^22 , ^23 ] In all cases we observed the predominant formation of γ‐alkyl‐d4TTPs 7 and d4TDP 2 d in very low concentration (Figure 2 B) but no NTP formation was detected, in contrast to the studies using the previously described TriPPPro compounds 5.[ ^23 , ^24 ] However, the difference to the compounds bearing long lipophilic acyl groups was not very pronounced (2‐ to 3‐fold). In the case of γ‐(AB‐C4,alkyl‐C18)‐d4TTP 6 cz, γ‐C18‐d4TTP 7 z was detected as the main product. After 8 h incubation, the ratio of γ‐C18‐d4TTP 7 z and d4TDP 2 d was 5:1. This was in sharp contrast to the studies performed with TriPPPro compounds 5.[ ^23 , ^24 ] There, it was almost impossible to detect significant concentrations of d4TTP due to its fast dephosphorylation to form first d4TDP and finally d4TMP 2 m. […] The formation of thymine or d4TTP 2 t from γ‐C18‐d4TTP 7 z was not detected (Supporting Information, Figure SI2).
as §1
Enzyme-catalyzed hydrolysis of γ-(AB,alkyl)-d4TTPs 6, γ-alkyl-d4TTPs 7,15 and TriPPPros 5 in CEM cell extracts:
18 µL of the appropriate 50 mM DMSO-d6 stock solution was diluted to 6.0 mM hydrolysis solution by addition of 132.0 µL DMSO-d6.
7-10 different samples including 10 µL water and 10 µL hydrolysis solution were prepared in 2 mL Eppendorf® vials. The reaction was started by addition of 50 µL human CEM cell extract and the mixture was incubated at 37 °C for different time periods. The reactions were stopped by addition of 150 μL MeOH. The solution was kept on ice for 5 min followed by centrifugation for 5 min (13000 rpm).
The supernatants were filtered (Chromafil® RC-20/15 MS, 0.2 μm) and stored in liquid nitrogen. When testing, the samples were defrosted and injection volume with 80 μL was used for HPLC analysis. The calculation of t1/2 was performed analogously to that for the chemical hydrolysis studies.
as §2

HIV-1(IIIB) = assay: Anti-HIV activity assay, HIV-1-infected wild-type CEM/0 cell cultures; type: cell-based; details: Human immunodeficiency virus 1, IIIB, CCRF-CEM, read-out: EC50 CEM/0 HIV-1
Protocol: (§3) γ‐(AB,alkyl)‐d4TTP prodrugs 6 and the γ‐alkyl‐d4TTPs 7 were evaluated for their ability to inhibit the replication of HIV in HIV‐1‐ or HIV‐2‐infected wild‐type CEM/0 as well as mutant thymidine‐kinase‐deficient CEM cell cultures (CEM/TK^−). For comparison, two TriPPPro derivatives 5 were also included in this assay.
(§4) Anti-HIV activity assay: Inhibition of HIV-1(IIIB)- and HIV-2(ROD)-induced cytopathicity in wild-type CEM/0 and thymidine kinase-deficient CEM/TK- cell cultures was measured in microtiter 96-well plates containing ~3·105 CEM cells/mL infected with 100 CCID50 of HIV per milliliter and containing appropriate dilutions of the test compounds. After 4−5 days of incubation at 37 °C in a CO2-controlled humidified atmosphere, CEM giant (syncytium) cell formation was examined microscopically. […]
(§5) was defined as the compound concentration required to inhibit HIV-induced giant cell formation by 50%. […]
(§6) The result was visualized by fluorescence imaging. […]
as §6

HIV-2(ROD) [3] = assay: Anti-HIV activity assay, HIV-2-infected wild-type CEM/0 cell cultures; type: cell-based; details: Human immunodeficiency virus 2, CCRF-CEM, read-out: EC50 CEM/0 HIV-2
Protocol: as §3, §4, §5, §6, §6

HIV-2(ROD) [4] = assay: Anti-HIV activity assay, HIV-2-infected thymidine-kinase-deficient CEM/TK- cell cultures; type: cell-based; details: Human immunodeficiency virus 2, CEM-TK(-), read-out: EC50 CEM/TK− HIV-2, thymidine-kinase-deficient CEM/TK− cells, HIV-2; mean±SD, n=2-3
Protocol: as §3, §4, §5, §6, §6

[5] = Cytotoxicity: inhibition of CD4+ T-cell (CEM) proliferation; type: cell-based; details: human, CEM/0 cells (CD4+ T-cells), 50 % cytostatic concentration, mean±SD, n=2-3
[6] = biological target: T1, HIV reverse transcriptase (RT) (Human immunodeficiency virus type 1 group M subtype B, UniProt P03366); assay: Primer extension assay with HIV-RT; type: biochemical, HIV-1; details: incubation 10, 20, 40 and 60 min; conversion of primer to n+1 product
T1 construct: reverse transcriptase (RT; an HIV‐encoded RNA‐dependent DNA polymerase); purchased Roboklon
Protocol: Primer-extension reactions:
HIV-RT and human DNA polymerase β and γ were obtained from Roboklon, human DNA polymerase α was obtained from Chimerx.
The primers and templates were purchased from Life Technologies and Microsynth. The fluorescent labeled primer was purchased
from Metabion and Microsynth. The gels were prepared with the size of 450mm×200mm×0.4mm according to the electrophoresis
5’-FITC and 5’-Cy3 labeled Primer-sequence:
The primer extension assays were performed under the following conditions:
FITC and Cy3 labeled primer extension assay:
1) Hybridization: After 5 min incubation at 95 °C in 20 mM Tris-HCl (pH 7.6) and 50 mM NaCl, the hybridization/annealing of the
primer to the template strand was achieved by a cooling phase from 95 °C to […] lasted more than 2 hours. […]
The assays were separated using a denaturating PAGE (15%). The result was visualized by fluorescence imaging. […]
as §6, §6

## CCCCCCCCCCCOP(=O)(O)OP(=O)(O)OP(=O)(O)OCC1C=CC(n2cc(C)c(=O)[nH]c2=O)O1 (stereo not shown) [7 x, γ‐C11‐d4TTP]
[1]
  PBS pH 7.3 t 1/2: n.h.^[c]
[2]
  half-life at 0.86 mM: > 30 h
HIV-1(IIIB)
  EC50: 0.89 ± 0.28 µM
HIV-2(ROD) [3]
  EC50: 0.26 ± 0.083 µM
HIV-2(ROD) [4]
  EC50: 16 ± 5 µM
[5]
  CC50: 78 ± 10 µM
[6]
  comparison of substrate properties for HIV-RT: better substrates

— publication PMC7756582, “Prodrugs of γ‐Alkyl‐Modified Nucleoside Triphosphates: Improved Inhibition of HIV Reverse Transcriptase” (Angewandte Chemie (International Ed. in English), 2020)
